According to ChEMBL document CHEMBL5576052, “Design, synthesis, and biological evaluation of new bis-benzylisoquinoline-based analogues as potential neuromuscular blocking agents” (Bioorg Med Chem Lett, 2024):

Columns and labels:
Type in all cases: functional
[1] = test system: Oryctolagus cuniculus; test: Neuromuscular blocking in rabbit model of propofol-induced anesthesia assessed as onset time at 272.7 nmol/kg by train-of-four response method
[2] = test system: Oryctolagus cuniculus; test: Neuromuscular blocking in rabbit model of propofol-induced anesthesia assessed as maximal blockade at 272.7 nmol/kg by train-of-four response method relative to control
[3] = test system: Oryctolagus cuniculus; test: Neuromuscular blocking in rabbit model of propofol-induced anesthesia assessed as duration of time for maximal blockade at 272.7 nmol/kg by train-of-four response method
[4] = test system: Oryctolagus cuniculus; test: Neuromuscular blocking in rabbit model of propofol-induced anesthesia assessed as effective blocking time by measuring duration from administration to 25 percent recovery at 272.7 nmol/kg by train-of-four response method
[5] = test system: Oryctolagus cuniculus; test: Neuromuscular blocking in rabbit model of propofol-induced anesthesia assessed as time duration of 25 to 75 percent recovery indices at 272.7 nmol/kg by train-of-four response method
[6] = test system: Oryctolagus cuniculus; test: Neuromuscular blocking in rabbit model of propofol-induced anesthesia assessed as time duration of 25 to 90 percent recovery indices at 272.7 nmol/kg by train-of-four response method
[7] = test system: Oryctolagus cuniculus; test: Neuromuscular blocking in rabbit model of propofol-induced anesthesia assessed as onset time at 27.27 nmol/kg by train-of-four response method
[8] = test system: Oryctolagus cuniculus; test: Neuromuscular blocking in rabbit model of propofol-induced anesthesia assessed as maximal blockade at 27.27 nmol/kg by train-of-four response method relative to control
[9] = test system: Oryctolagus cuniculus; test: Neuromuscular blocking in rabbit model of propofol-induced anesthesia assessed as duration of time for maximal blockade at 27.27 nmol/kg by train-of-four response method
[10] = test system: Oryctolagus cuniculus; test: Neuromuscular blocking in rabbit model of propofol-induced anesthesia assessed as effective blocking time by measuring duration from administration to 25 percent recovery at 27.27 nmol/kg by train-of-four response method
[11] = test system: Oryctolagus cuniculus; test: Neuromuscular blocking in rabbit model of propofol-induced anesthesia assessed as time duration of 25 to 75 percent recovery indices at 27.27 nmol/kg by train-of-four response method
[12] = test system: Oryctolagus cuniculus; test: Neuromuscular blocking in rabbit model of propofol-induced anesthesia assessed as time duration of 25 to 90 percent recovery indices at 27.27 nmol/kg by train-of-four response method

`CC[N+]1(CCCOC(=O)CC/C=C/CCC(=O)OCCC[N+]2(CC)CCc3cc(OC)c(OC)cc3[C@H]2Cc2cc(OC)c(OC)c(OC)c2)CCc2cc(OC)c(OC)cc2[C@H]1Cc1cc(OC)c(OC)c(OC)c1.[Cl-].[Cl-]` (some centres not stated) gave a Time [1] of 0.75 min, an Emax at 0.2727 µmol/kg [2] of 100% and a Time [3] of 11.75 min. For the same molecule, the Time [4] was 14 min, the Time [5] was 6.42 min and the Time [6] was 9.67 min.
`COc1cc2c(cc1OC)[C@@H](Cc1cc(OC)c(OC)c(OC)c1)[N+](C)(CCC(=O)OCC(C)(C)COC(=O)CC[N+]1(C)CCc3cc(OC)c(OC)cc3[C@H]1Cc1cc(OC)c(OC)c(OC)c1)CC2` (some centres not stated) was tested, and the Emax at 0.2727 µmol/kg [2] was 0%.
`COc1cc2c(cc1OC)[C@@H](Cc1cc(OC)c(OC)c(OC)c1)[N+](C)(CCC(=O)OCC(F)(F)COC(=O)CC[N+]1(C)CCc3cc(OC)c(OC)cc3[C@H]1Cc1cc(OC)c(OC)c(OC)c1)CC2` (some centres not stated) was tested, and the Emax at 0.2727 µmol/kg [2] was 0%.
`COc1cc2c(cc1OC)[C@@H](Cc1cc(OC)c(OC)c(OC)c1)[N+](C)(CCCOC(=O)CCCC(=O)OCCC[N+]1(C)CCc3cc(OC)c(OC)cc3[C@H]1Cc1cc(OC)c(OC)c(OC)c1)CC2.[Cl-].[Cl-]` (some centres not stated) showed a Time [7] of 2.58 min, an Emax at 0.02727 µmol/kg [8] of 100% and a Time [9] of 8.08 min. The Time [10] was 11.67 min, the Time [11] was 7.75 min and the Time [12] was 11.77 min. The Time [1] was 0.75 min, the Emax at 0.2727 µmol/kg [2] was 100% and the Time [3] was 66.5 min. It also gave a Time [4] of 73.08 min, a Time [5] of 7.67 min and a Time [6] of 12 min.
`C=CC[N+]1(CCCOC(=O)CC/C=C/CCC(=O)OCCC[N+]2(CC=C)CCc3cc(OC)c(OC)cc3[C@H]2Cc2cc(OC)c(OC)c(OC)c2)CCc2cc(OC)c(OC)cc2[C@H]1Cc1cc(OC)c(OC)c(OC)c1` (some centres not stated) was tested, and the Emax at 0.2727 µmol/kg [2] was 92%.
Molecule `COc1cc2c(cc1OC)[C@@H](Cc1cc(OC)c(OC)c(OC)c1)[N+](C)(CCCOC(=O)CCCCC(=O)OCCC[N+]1(C)CCc3cc(OC)c(OC)cc3[C@H]1Cc1cc(OC)c(OC)c(OC)c1)CC2.[Cl-].[Cl-]` (some centres not stated) has a Time [7] of 2.75 min, an Emax at 0.02727 µmol/kg [8] of 100% and a Time [9] of 2 min. For the same molecule, the Time [10] was 5.17 min, the Time [11] was 9.67 min and the Time [12] was 11.67 min. The Time [1] was 0.63 min, the Emax at 0.2727 µmol/kg [2] was 100% and the Time [3] was 35 min. It also gave a Time [4] of 38 min, a Time [5] of 6.38 min and a Time [6] of 8.13 min.
`COc1cc2c(cc1OC)[C@@H](Cc1cc(OC)c(OC)c(OC)c1)[N+](C)(CCC(=O)OCCCCCCOC(=O)CC[N+]1(C)CCc3cc(OC)c(OC)cc3[C@H]1Cc1cc(OC)c(OC)c(OC)c1)CC2.O=S(=O)([O-])c1ccccc1.O=S(=O)([O-])c1ccccc1` (some centres not stated) showed a Time [1] of 1 min, an Emax at 0.2727 µmol/kg [2] of 100% and a Time [3] of 44.92 min. It also gave a Time [4] of 49.83 min, a Time [5] of 9.92 min and a Time [6] of 12.17 min.
Molecule `COc1cc2c(cc1OC)[C@@H](Cc1cc(OC)c(OC)c(OC)c1)[N@+](CCCOC(=O)CC/C=C/CCC(=O)OCCC[N@@+]1(CC3CCC3)CCc3cc(OC)c(OC)cc3[C@H]1Cc1cc(OC)c(OC)c(OC)c1)(CC1CCC1)CC2.[Cl-].[Cl-]` has a Time [1] of 2 min, an Emax at 0.2727 µmol/kg [2] of 100% and a Time [3] of 8.5 min. It also gave a Time [4] of 15.38 min, a Time [5] of 8.92 min and a Time [6] of 15.17 min.
For `COc1cc2c(cc1OC)[C@@H](Cc1cc(OC)c(OC)c(OC)c1)[N+](CCCOC(=O)CC/C=C/CCC(=O)OCCC[N+]1(CC3CC3)CCc3cc(OC)c(OC)cc3[C@H]1Cc1cc(OC)c(OC)c(OC)c1)(CC1CC1)CC2.[Cl-].[Cl-]` (some centres not stated), the Time [1] was 1.25 min, the Emax at 0.2727 µmol/kg [2] was 100% and the Time [3] was 3.67 min. It also gave a Time [4] of 5.17 min, a Time [5] of 6.83 min and a Time [6] of 9.58 min.
`COc1cc2c(cc1OC)[C@@H](Cc1cc(OC)c(OC)c(OC)c1)[N+](C)(CCC(=O)OCC#CC#CCOC(=O)CC[N+]1(C)CCc3cc(OC)c(OC)cc3[C@H]1Cc1cc(OC)c(OC)c(OC)c1)CC2.O=S(=O)([O-])c1ccccc1.O=S(=O)([O-])c1ccccc1` (some centres not stated) showed a Time [1] of 1.42 min, an Emax at 0.2727 µmol/kg [2] of 100% and a Time [3] of 4.75 min. It also gave a Time [4] of 5.83 min, a Time [5] of 6.92 min and a Time [6] of 12 min.
Work on `COc1cc2c(cc1OC)[C@@H](Cc1cc(OC)c(OC)c(OC)c1)[N@@+](C)(CCCOC(=O)CC/C=C/CCC(=O)OCCC[N@@+]1(C)CCc3cc(OC)c(OC)cc3[C@H]1Cc1cc(OC)c(OC)c(OC)c1)CC2` yielded an Emax at 0.2727 µmol/kg [2] of 0%.
`COc1cc2c(cc1OC)[C@@H](Cc1cc(OC)c(OC)c(OC)c1)[N+](C)(CCCOC(=O)CC(C)(C)CC(=O)OCCC[N+]1(C)CCc3cc(OC)c(OC)cc3[C@H]1Cc1cc(OC)c(OC)c(OC)c1)CC2.[Cl-].[Cl-]` (some centres not stated) was tested, and the Time [1] was 1.25 min, the Emax at 0.2727 µmol/kg [2] was 100% and the Time [3] was 18.75 min. It also gave a Time [4] of 21.58 min, a Time [5] of 9.92 min and a Time [6] of 12.58 min.
With `COc1cc2c(cc1OC)[C@@H](Cc1cc(OC)c(OC)c(OC)c1)[N+](C)(CCC(=O)OCCCCOC(=O)CC[N+]1(C)CCc3cc(OC)c(OC)cc3[C@H]1Cc1cc(OC)c(OC)c(OC)c1)CC2.O=S(=O)([O-])c1ccccc1.O=S(=O)([O-])c1ccccc1` (some centres not stated) the Time [1] was 1.25 min, the Emax at 0.2727 µmol/kg [2] was 100% and the Time [3] was 18.58 min. It also gave a Time [4] of 23.08 min, a Time [5] of 8.17 min and a Time [6] of 13.67 min.
Molecule `CC[N@+]1(CCCOC(=O)CC/C=C/CCC(=O)OCCC[N@@+]2(CC)CCc3cc(OC)c(OC)cc3[C@H]2Cc2cc(OC)c(OC)c(OC)c2)CCc2cc(OC)c(OC)cc2[C@H]1Cc1cc(OC)c(OC)c(OC)c1.[Cl-].[Cl-]` has a Time [1] of 1.08 min, an Emax at 0.2727 µmol/kg [2] of 100% and a Time [3] of 11.58 min. The Time [4] was 14.67 min, the Time [5] was 10.58 min and the Time [6] was 15.25 min.
For `COc1cc2c(cc1OC)[C@@H](Cc1cc(OC)c(OC)c(OC)c1)[N+](C)(CCCOC(=O)Cc1ccc(CC(=O)OCCC[N+]3(C)CCc4cc(OC)c(OC)cc4[C@H]3Cc3cc(OC)c(OC)c(OC)c3)cc1)CC2.[Cl-].[Cl-]` (some centres not stated), the Time [1] was 0.92 min, the Emax at 0.2727 µmol/kg [2] was 100% and the Time [3] was 14.83 min. It also gave a Time [4] of 18.08 min, a Time [5] of 8 min and a Time [6] of 10.83 min.
With `COc1cc2c(cc1OC)[C@@H](Cc1cc(OC)c(OC)c(OC)c1)[N+](C)(CCC(=O)OCCCOC(=O)CC[N+]1(C)CCc3cc(OC)c(OC)cc3[C@H]1Cc1cc(OC)c(OC)c(OC)c1)CC2.O=S(=O)([O-])c1ccccc1.O=S(=O)([O-])c1ccccc1` (some centres not stated) the Time [1] was 1.08 min, the Emax at 0.2727 µmol/kg [2] was 100% and the Time [3] was 7.58 min. For the same molecule, the Time [4] was 9.75 min, the Time [5] was 7.92 min and the Time [6] was 9.83 min.
Molecule `COc1cc2c(cc1OC)[C@@H](Cc1cc(OC)c(OC)c(OC)c1)[N+](C)(CCCOC(=O)c1ccccc1-c1ccccc1C(=O)OCCC[N+]1(C)CCc3cc(OC)c(OC)cc3[C@H]1Cc1cc(OC)c(OC)c(OC)c1)CC2` (some centres not stated) has an Emax at 0.2727 µmol/kg [2] of 0%.
`COc1cc2c(cc1OC)[C@@H](Cc1cc(OC)c(OC)c(OC)c1)[N+](C)(CCC(=O)OCC#CCOC(=O)CC[N+]1(C)CCc3cc(OC)c(OC)cc3[C@H]1Cc1cc(OC)c(OC)c(OC)c1)CC2` (some centres not stated) was tested, and the Emax at 0.2727 µmol/kg [2] was 85%.
Work on `COc1cc2c(cc1OC)[C@@H](Cc1cc(OC)c(OC)c(OC)c1)[N@+](CCCOC(=O)CC/C=C/CCC(=O)OCCC[N@@+]1(CC3CC3)CCc3cc(OC)c(OC)cc3[C@H]1Cc1cc(OC)c(OC)c(OC)c1)(CC1CC1)CC2.[Cl-].[Cl-]` yielded a Time [1] of 2 min, an Emax at 0.2727 µmol/kg [2] of 45% and a Time [3] of 2.5 min. For the same molecule, the Time [5] was 5 min and the Time [6] was 7.87 min.
`C=CC[N@+]1(CCCOC(=O)CC/C=C/CCC(=O)OCCC[N@@+]2(CC=C)CCc3cc(OC)c(OC)cc3[C@H]2Cc2cc(OC)c(OC)c(OC)c2)CCc2cc(OC)c(OC)cc2[C@H]1Cc1cc(OC)c(OC)c(OC)c1.[Cl-].[Cl-]` showed a Time [1] of 1.42 min, an Emax at 0.2727 µmol/kg [2] of 100% and a Time [3] of 4.75 min. The Time [4] was 6.92 min, the Time [5] was 13.25 min and the Time [6] was 21.83 min.
`COc1cc2c(cc1OC)[C@@H](Cc1cc(OC)c(OC)c(OC)c1)[N+](C)(CCC(=O)OC/C(Br)=C(\Br)COC(=O)CC[N+]1(C)CCc3cc(OC)c(OC)cc3[C@H]1Cc1cc(OC)c(OC)c(OC)c1)CC2.O=S(=O)([O-])c1ccccc1.O=S(=O)([O-])c1ccccc1` (some centres not stated) showed a Time [1] of 1 min, an Emax at 0.2727 µmol/kg [2] of 100% and a Time [3] of 8.75 min. For the same molecule, the Time [4] was 9.75 min, the Time [5] was 6.83 min and the Time [6] was 10.92 min.
